{"source": "patent US20140243415A1", "about": "“COMPOUNDS INHIBITING GALECTIN-1 EXPRESSION, CANCER CELL PROLIFERATION, INVASION, AND TUMORIGENESIS” (ONCOETHIX SA, priority 2011, published 2014)", "assay_type_in_all_cases": "cell-based, human", "key": {"OVCAR3": {"test_system": "OVCAR3", "assay": "MTT cell cytotoxicity assay", "conditions": "72 h drug exposure and 48 h wash-out", "protocol": "(§1) Cell survival was determined using the MTT assay (3-[4,5-dimethylthiazol-2-yl]-2,5-diphenyltetrazolium bromide; Sigma, Saint-Quentin Fallavier, France). The conversion of yellow water-soluble tetrazolium MTT into purple insoluble formazan is catalyzed by mitochondrial dehydrogenases and used to estimate the number of viable cells. In brief, cells were seeded in 96-well tissue culture plates at a density of 2×10^3 cells/well. After 72 h drug exposure and 48 h wash-out, cells were incubated with 0.4 mg/ml MTT for 4 hours at 37° C. After incubation, the supernatant was discarded, insoluble formazan precipitates were dissolved in 0.1 ml of DMSO and the absorbance was measured at 560 nm by use of a microplate reader (Thermo, France). Wells with untreated cells or with drug-containing medium without cells were used as positive and negative controls respectively. IC50's were determined as the halves of maximal inhibitory drug concentration for each cell line.\n(§2) The antiproliferative effects of OTX-008 and anginex were assessed using MTT assay in a panel of human cancer cell lines of human origins expressing various levels of Lgals-1 mRNA and galectin-1 protein expressions (Supplementary Table 1). […] Remaining cell lines were less sensitive to OTX-008 with GI50 values >9 μM. […] No correlation between mRNA expressions of galectin-2, galectin-3, and galectin-8 as well as semaphorin-3A, semaphorin-3B, neuropilin-1, VEGFR1-3, VEGFA-D, and PDGFRa&P3 and sensitivity to OTX-008 were detected in the panel."}, "A2780-1A9": {"test_system": "A2780-1A9", "assay": "MTT cell cytotoxicity assay", "protocol": "as §1, §2"}, "SQ20B": {"test_system": "SQ20B", "assay": "MTT cell cytotoxicity assay", "protocol": "as §1, §2"}, "γH2AX": {"test_system": "γH2AX", "assay": "γH2AX expression"}, "SQ20B cells [1]": {"test_system": "SQ20B cells", "assay": "In vitro growth inhibition assay", "conditions": "SQ20B, OTX-008 added to semaphorin-3A or lactose", "protocol": "(§3) FIG. 5. Modulation of the galectin-1/semaphorin-3A/neuropilin system in SQ20B cells. A—Effects of galectin-1 (Gall), semaphorin-3A (Sema3A), lactose, with or without four different concentrations of OTX-008 on SQ20B growth at day 6. Embedded figure: Proliferation assay of SQ20B and SQ-shGAL1. B—In vitro matrigel invasion assay of SQ20B exposed to […] galectin-1, 1 μg/ml semaphorin-3A, 200 ng/ml lactose or 10 μM UO126 with or without 3 μM OTX-008. Embedded figure: In vitro matrigel invasion assay of SQ20B and SQ-shGAL1. Invasion was quantified after 48 h by counting the average number of invaded cells.\nFor proliferation assay, cells were seeded in 96-well tissue culture plates at a density of 1.5×10^3 cells/well. MTT assay was conducted daily to determine the number of viable cells in untreated control and treated group. Growth inhibition curves were plotted as a percentage of cells for each experimental condition.\n(§4) Galectin-1 may form extracellular lattices counteracting the inhibitory properties of semaphorin-3A on neuropilin-1, eventually leading to the modulation of the vascular endothelial growth factor (VEGFR) and platelet derived growth factor (PDGFR) receptors, fibronectin, and laminin activity SQ20B cells expressed significant mRNA and protein levels of semaphorin-3A and neuropilin-1, PDGFRa&(, VEGF A-D, and VEGFR1-3 (Supplementary FIG. 2A). Thus, SQ20B cells were selected to evaluate the effects of OTX-008 on galectin-1/semaphorin-3A interactions. No difference between SQ20B cells growing in plastic or fibronectin- and laminin-coated plates. […] Galectin-1 and semaphorin-3A induced invasion was inhibited by OTX-008 mimicking the effects of lactose in this model."}, "[2]": {"test_system": "DLD-1TR21 colon cancer cells", "assay": "Antiproliferative effects, SNAIL-inducible model", "conditions": "SNAIL-inducible DLD-1TR21", "text": "FIG. 2. Epithelial-to-mesenchymal differentiation and OTX-008 sensitivity. A—Correlations between galectin-1 (LGALS1) and vimentin, E-cadherin (CDH1) and N-cadherin (CDH2) relative mRNA expression. B—Correlations between OTX-008 IC50s and vimentin, E-cadherin (CDH1) and N-cadherin (CDH2) relative mRNA expression. C—Antiproliferative effects of OTX-008 in epithelial COLO205-S and mesenchymal COLO205-R colon cancer cells. D—Antiproliferative effects of OTX-008 in SNAIL-inducible colon cancer cell lines. E—Antiproliferative effects of OTX-008 in shWISP breast cancer cell lines.\nas §1, with “After 72 h drug exposure and 48 h wash-out, cells were incubated with 0.4 mg/ml MTT for 4 hours at 37° C.” left out, “Wells with untreated cells or with drug-containing medium without cells were used as positive and negative controls respectively.” left out, “line. […]” for “line.”"}, "SQ20B cells [3]": {"test_system": "SQ20B cells", "assay": "Matrigel invasion assay", "protocol": "as §3\n8 μm membranes were coated with Matrigel (50 μg). The inserts were placed within a 24-well chamber containing 0.6 ml of RPMI 1640 medium with 20% fetal bovine serum as chemoattractant. 10^5 cells were seeded into the inserts suspended in 0.3 ml of serum-free RPMI. After incubation for 48 h at 37° C., the upper surface of the filter was scraped to remove non-invasive cells. Invasive cells were fixed and stained with a Diff Quik detection Kit (Dade Behring, Paris, France). For quantification, the average number of invading cells per field was assessed by counting 9 random fields under a light microscope (400×).\nas §4"}, "[4]": {"conditions": "72 h drug exposure and 48 h wash-out"}}}
{"molecule": "CN(C)CCNC(=O)COc1c2cccc1Cc1cccc(c1OCC(=O)NCCN(C)C)Cc1cccc(c1OCC(=O)NCCN(C)C)Cc1cccc(c1OCC(=O)NCCN(C)C)C2", "note": "[OTX-008]", "values": [{"measurement": "antiproliferative effects (MTT)", "setting": "OVCAR3", "value": "dose-dependent antiproliferative effects"}, {"measurement": "sensitivity to OTX-008", "setting": "A2780-1A9", "value": "only marginally sensitive"}, {"measurement": "antiproliferative effects (MTT)", "setting": "A2780-1A9; [4]", "value": "dose-dependent antiproliferative effects"}, {"measurement": "sensitivity to OTX-008 among the cell lines tested", "setting": "SQ20B", "value": "most sensitive"}, {"measurement": "antiproliferative effects (MTT)", "setting": "SQ20B; [4]", "value": "dose-dependent antiproliferative effects"}, {"measurement": "γH2AX expression", "setting": "γH2AX", "value": "no direct effects"}, {"measurement": "antiproliferative effects in combination with semaphorin-3A or lactose", "setting": "SQ20B cells [1]", "value": "enhanced the antiproliferative effects"}, {"measurement": "effect of SNAIL induction on sensitivity", "setting": "[2]", "value": "no impact on sensitivity"}, {"measurement": "invasion of SQ20B cells, agent alone", "setting": "SQ20B cells [3]; 48 h, 1 g/ml galectin-1, 1 μg/ml semaphorin-3A, 10 μM UO126, 3 μM OTX-008", "value": "inhibits proliferation and invasion"}, {"measurement": "galectin-1 and semaphorin-3A induced invasion", "setting": "SQ20B cells [3]; SQ20B, 3 μM OTX-008, 48 h", "value": "inhibited"}]}
